Source: paper PMC12268434 (ACS Omega, 2025)

Experiments:
U-87 MG glioma cells = assay: CCK-8 cell viability assay, U-87 MG; format: cell-based, human; conditions: U-87 MG glioma / glioblastoma cells
U-87 MG cells = assay: Flow cytometry; format: cell-based, human; conditions: IC50 concentrations, 24 h

Row | Structure (SMILES) | cytotoxic activity (in words) (U-87 MG glioma cells) | induction of apoptosis (Annexin V-FITC/PI, in words) (U-87 MG cells)
1 | COc1c(O)cc2ccc3cc(O)ccc3c2c1OC [compound 6, nudol] | no cytotoxic activity | –
2 | COc1cccc2c1C(=O)c1c(O)c3c(c(O)c1C2=O)C[C@@](O)(C(=O)CO)C[C@@H]3O[C@H]1C[C@H](N)[C@H](O)[C@H](C)O1 [DOX, doxorubicin] | – | induce apoptosis
3 | COc1c(O)cc2c(c1OC)-c1ccc(O)cc1CC2 [compound 7, erianthridin] | no cytotoxic activity | –
